Data taken from paper PMC4289911, “[^68Ga]FSC-(RGD)3 a trimeric RGD peptide for imaging αvβ3 integrin expression based on a novel siderophore derived chelating scaffold—synthesis and evaluation” (Nuclear Medicine and Biology, 2015).
Read-outs that look alike come from different tables or passages of the source.

Experiments:
αvβ3 integrin [1] = molecular target: T1, αvβ3 integrin (Homo sapiens, UniProt P05106+P06756); experiment: Binding affinity for immobilized αvβ3 integrin, displacement of [125I]c(RGDyV); settings: isolated αvβ3 integrin coated on 96-well plates, radioligand [125I]c(RGDyV), 0.001 to 100 nM peptide, three independent measurements
T1 construct: purchased Millipore-Chemicon, Temecula, CA, USA
Method: In vitro binding affinities of FSC-(RGD)3 and cyclo(-Arg-Gly-Asp-DTyr-Val-) (c(RGDyV)) as control were determined by using isolated αvβ3 integrin (Millipore-Chemicon, Temecula, CA, USA) and ^125I labeled c(RGDyV) as radioligand. The detailed procedure can be found in [16]. Briefly, 96-well plates (Nunc, Thermo Fisher Scientific, Vienna, Austria) were coated for 16 hours at 4 °C with the αvβ3 integrin. Subsequently, the immobilized receptors were incubated with [^125I]c(RGDyV) and increasing concentrations of the corresponding peptide ranging from 0.001 to 100 nM. The unbound fraction of radioligand was washed out, and receptor bound activity was obtained treating the wells with sodium hydroxide (NaOH) solution (2 M). IC50 values were determined by fitting the percent inhibition using OriginPro 8.5 software (Northhampton, MA, USA). Three independent measurements were made.

αvβ3 integrin [2] = molecular target: T1, αvβ3 integrin; settings: comparison value; read-out: IC50, binding affinity for αvβ3 integrin; cited from earlier work
From the text: A high binding affinity to the isolated αvβ3 integrin for [^68Ga]FSC-(RGD)3 was found. […] A remarkable enhancement of internalized activity in comparison to [^68Ga]NODAGA-RGD or other monomeric RGD derivatives, [16] was observed. Moreover, ...

T1 sequence (P06756 31-889 limits assumed): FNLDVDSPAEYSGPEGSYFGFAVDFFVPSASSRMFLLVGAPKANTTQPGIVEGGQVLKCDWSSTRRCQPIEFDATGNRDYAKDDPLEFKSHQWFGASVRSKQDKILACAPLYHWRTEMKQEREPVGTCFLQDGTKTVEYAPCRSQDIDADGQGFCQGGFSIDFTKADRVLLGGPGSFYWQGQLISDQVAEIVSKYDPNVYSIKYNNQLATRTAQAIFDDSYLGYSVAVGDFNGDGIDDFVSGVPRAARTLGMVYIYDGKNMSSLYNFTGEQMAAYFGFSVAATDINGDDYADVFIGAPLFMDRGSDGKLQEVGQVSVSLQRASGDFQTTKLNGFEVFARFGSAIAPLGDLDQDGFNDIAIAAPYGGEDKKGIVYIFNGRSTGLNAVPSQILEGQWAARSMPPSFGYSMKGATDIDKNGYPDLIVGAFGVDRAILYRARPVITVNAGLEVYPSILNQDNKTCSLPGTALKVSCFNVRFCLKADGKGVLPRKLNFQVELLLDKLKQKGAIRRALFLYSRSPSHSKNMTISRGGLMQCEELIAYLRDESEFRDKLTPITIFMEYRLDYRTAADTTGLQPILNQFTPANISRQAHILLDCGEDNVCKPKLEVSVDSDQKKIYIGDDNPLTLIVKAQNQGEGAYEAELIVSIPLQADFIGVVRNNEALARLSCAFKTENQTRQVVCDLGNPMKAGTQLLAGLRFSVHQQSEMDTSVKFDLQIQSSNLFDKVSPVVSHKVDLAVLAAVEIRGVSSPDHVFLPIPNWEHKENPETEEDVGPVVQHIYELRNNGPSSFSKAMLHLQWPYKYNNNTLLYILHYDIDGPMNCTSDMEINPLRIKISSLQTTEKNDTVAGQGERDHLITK
T1 sequence (P06756 891-1048 partner limits assumed): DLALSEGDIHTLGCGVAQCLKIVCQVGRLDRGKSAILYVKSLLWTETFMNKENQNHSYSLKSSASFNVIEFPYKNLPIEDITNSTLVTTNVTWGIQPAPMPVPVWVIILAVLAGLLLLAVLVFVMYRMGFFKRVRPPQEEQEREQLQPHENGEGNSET
T1 sequence (P05106 27-788): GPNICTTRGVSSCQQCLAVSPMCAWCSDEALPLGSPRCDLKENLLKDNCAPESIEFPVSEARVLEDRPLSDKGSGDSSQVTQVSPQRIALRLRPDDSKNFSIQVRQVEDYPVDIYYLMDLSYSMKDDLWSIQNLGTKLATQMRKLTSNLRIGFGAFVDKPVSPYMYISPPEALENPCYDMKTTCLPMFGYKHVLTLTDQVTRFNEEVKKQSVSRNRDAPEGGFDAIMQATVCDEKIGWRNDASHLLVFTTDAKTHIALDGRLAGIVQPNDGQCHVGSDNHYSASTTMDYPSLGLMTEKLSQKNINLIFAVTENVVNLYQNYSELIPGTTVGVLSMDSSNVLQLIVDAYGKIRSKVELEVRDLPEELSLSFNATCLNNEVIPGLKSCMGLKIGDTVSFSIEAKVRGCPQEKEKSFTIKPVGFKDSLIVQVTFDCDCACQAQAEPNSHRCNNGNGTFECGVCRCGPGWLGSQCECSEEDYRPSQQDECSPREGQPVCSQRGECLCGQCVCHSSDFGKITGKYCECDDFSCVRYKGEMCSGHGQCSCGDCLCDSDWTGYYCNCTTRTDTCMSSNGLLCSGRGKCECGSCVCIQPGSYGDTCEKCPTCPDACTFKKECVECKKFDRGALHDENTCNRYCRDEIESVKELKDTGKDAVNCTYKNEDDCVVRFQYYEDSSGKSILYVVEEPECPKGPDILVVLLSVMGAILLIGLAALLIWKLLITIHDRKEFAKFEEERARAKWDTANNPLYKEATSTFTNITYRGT

Compound	IC50 (αvβ3 integrin [1])	IC50 (αvβ3 integrin [2])
C/C1=C/C(=O)N(O)CCC[C@H](NC(=O)CCC(=O)NCCCC[C@@H]2NC(=O)[C@@H](Cc3ccccc3)NC(=O)[C@H](CC(=O)O)NC(=O)CNC(=O)[C@H](CCCNC(=N)N)NC2=O)C(=O)OCC/C(C)=C\C(=O)N(O)CCC[C@H](NC(=O)CCC(=O)NCCCC[C@@H]2NC(=O)[C@@H](Cc3ccccc3)NC(=O)[C@H](CC(=O)O)NC(=O)CNC(=O)[C@H](CCCNC(=N)N)NC2=O)C(=O)OCC/C(C)=C\C(=O)N(O)CCC[C@H](NC(=O)CCC(=O)NCCCC[C@@H]2NC(=O)[C@@H](Cc3ccccc3)NC(=O)[C@H](CC(=O)O)NC(=O)CNC(=O)[C@H](CCCNC(=N)N)NC2=O)C(=O)OCC1 [FSC-(RGD)3]	1.8 ± 0.6 nM	–
CC(C)[C@@H]1NC(=O)[C@@H](Cc2ccc(O)cc2)NC(=O)[C@H](CC(=O)O)NC(=O)CNC(=O)[C@H](CCCNC(=N)N)NC1=O [c(RGDyV), cyclo(-Arg-Gly-Asp-DTyr-Val-)]	3.2 ± 1.2 nM	–
[^68Ga]NODAGA-RGD: established monomeric 68Ga-labeled RGD peptide	–	4.7 nM
